Measured values from article PMC12270663, “Cagrilintide lowers bodyweight through brain amylin receptors 1 and 3” (eBioMedicine, 2025).

What was measured:
AMYRs and CTR = settings: cited from earlier work
Description: In a cellular assay, cagrilintide was confirmed to be a non-selective agonist of the CTR and AMYRs across multiple assays of proximal ...

[1] = tested on: WT and RAMP1/3 KO high fat diet fed mice; assay: Study 3: body composition by EchoMRI; assay type: in vivo, mouse; settings: 150 nmol/kg/d s.c., 3 weeks
Experimental: (§1) Mice were s.c. injected once a day for 3 weeks 1 h before dark onset between 9.00 and 10.00 h. Prior to injection, daily body weight and food intake were measured manually. On the day of sacrifice, mice were anesthetised with pentobarbital (100 mg/kg, i.p., Cantonal Pharmacy of Zurich, Switzerland) 24 h after receiving the last dose of peptide.
Brains were harvested, snap frozen on dry ice and kept at −80 °C until mRNA extraction for next-generation sequencing (NGS) analysis. Blood samples were collected from the right ventricle of the heart during the sacrifice in 1 mL EDTA-coated tubes containing dipeptidyl peptidase-4 inhibitor (10 μL/mL blood; Sigma Aldrich, Switzerland, cat# DPP4-010) and protease inhibitor (30 μL/mL blood; Sigma Aldrich, Switzerland, cat# P2714). After centrifugation, plasma was kept at −80 °C. The mice were stored at −20 °C until body composition analysis was performed.
Lean and fat mass were measured post-mortem using EchoMRI (EchoMRI LLC, USA) at the Zurich Integrative Rodent Physiology (University of Zurich). Calibrations and measurements were performed according to manufacturer's instructions. Two measurements were performed and averaged per mouse. Fat mass and lean mass values are expressed as percent of body weight.

[2] = tested on: WT and RAMP1/3 KO high fat diet fed mice; assay: Study 3: 3-week treatment, food intake and body weight; assay type: in vivo, mouse
Experimental: Male mice were housed in a controlled environment maintained at 21 ± 2 °C, under a 12/12 h light–dark cycle (lights off at 11.00 h). Mice had ad libitum access to standard chow (3.14 kcal/g of food; Kliba, Switzerland, cat# 3436) and water, until 3–4 weeks old. Twenty-four WT and twenty-four RAMP 1/3 KO male mice were fed a 60% fat HFD (5.24 kcal/g of food; SSNIFF Spezialdiäten GmbH, Germany, cat# EF D12452) provided ad libitum for 18 weeks. Then mice were fed to a 45% fat HFD (4.73 kcal/g of food; SSNIFF Spezialdiäten GmbH, Germany, cat# EF D12451) provided ad libitum for 6 weeks until the end of the study. The mice were group housed (3–4 mice per cage) until 1 week before the 21-day treatment period. Each cage was equipped with a red plastic house, tissue paper, nest-building material and wood shavings. Prior to the 21-day treatment, mice were injected with vehicle for three days to acclimate to the daily subcutaneous injections and reduce stress associated with the injections.
as §1

[3] = tested on: area postrema (AP) neurons of WT and RAMP1/3 KO mice; assay: Study 4 cohort 1: cFos positive neurons, AP; assay type: in vivo, mouse; settings: second statistical test, Figure 4b
Experimental: Mice were group housed in a controlled environment maintained at 21 ± 2 °C, under a 12/12 h light–dark cycle (lights off at 11.00 h). In the first cohort, 25 male WT and 25 male RAMP1/3 KO mice aged between 12 and 20 week-old were fed chow diet and maintained under group housing condition. In the second cohort, 18 male WT, 18 male RAMP1 KO, 18 male RAMP3 KO and 18 male RAMP1/3 KO mice aged between 10 and 15 week-old were fed chow diet and maintained under group housing condition.
For both cohorts, animals were deeply anesthetised 90 min later (pentobarbital 100 mg/kg, i.p) and transcardially perfused with cold 0.1 M of phosphate buffer (PB) for 1.5 min followed by 4% of paraformaldehyde (PFA) in PB for 2.5 min. Brains were removed and postfixed overnight in 4% of PFA and cryoprotected in 20% of sucrose-PB for 24 h. Brains were frozen in hexane on dry ice and stored at −80 °C until sectioning. Stereological brain sampling of the areas of interest was performed and brain were serially cut on a cryostat (Leica Biosystems, Germany, cat# CM3050S), mounted on Superfrost Plus slides (Thermo Fisher Scientific, Reinach, Switzerland), and cryoprotected in 50% of PB, 30% of ethylene glycol, 20% of glycerol, and subsequently stored at −20 °C.
Blocking of the mouse brain sections was performed with 0.4% Triton–4% normal goat serum in PBS for 2 h at room temperature. AP/NTS and LPBN sections were incubated at 4 °C for 48 h with rabbit anti-Fos antibody (1:500, Cell signalling technology, Switzerland, Cat# 2250, RRID: AB_2247211), and then after PBS washes, incubated with goat anti-rabbit Alexa Fluor CY3 (1:200, LuBio Science GmbH, Switzerland for Jackson Immunoresearch, Cat# 111-165-144) or alexa fluor 488 for 2 h at room temperature. After thorough washing in PBS, the sections were counterstained with DAPI, mounted immediately and coverslipped with Vectashield antifade Mounting Medium (Vectorlabs, Burlingame, USA, cat# H-1400).[40]
Photomicrographs of all sections containing AP, NTS and LPBN were taken at 20× magnification using Zeiss Axio Scan.Z1 slidescanner (Center for Microscopy and Image Analysis UZH, Zeiss, Germany). All images for each study were acquired using the same exposure time. Scanned images were imported into QuPath (QuPath 0.5.0) for quantification. Three to four sections were counted and averaged per area of interest. A polygon tool was used manually to determine the boundary of the region of interest of the brain section. A cell detection tool was used to detect every cell in the section by using a built-in cell segmentation algorithm. The cell detection tool was used on the DAPI channel to make sure that only a cell was recognised and not the background or artefact by system. A detection classifier was created by using the create detection classifier function. The numbers of positive counted DAPI cells containing a cFos signal were automatically counted within the region. The experimental group was blinded to the experimenter during the analysis.

Row | Molecule | residence time (dissociation) (AMYRs and CTR; comparable for all AMYRs / all receptors) [min] | reduction of relative lean mass in KO mice compared to WT [1] [%] | effect on body composition ([1]; WT mice) | acute anorectic effect on day 1 ([2]; RAMP1/3 KO mice, cagrilintide 3, sCT 150 nmol/kg s.c.) | weight gain on subchronic treatment ([2]; WT mice, 150 nmol/kg/d s.c.) | Food intake on Day 1 ([2]; WT mice, cagrilintide 3, sCT 150 nmol/kg s.c., mean ± SEM, n = 7–8/group) [g] | Predicted (LS) mean diff., AP cFos after square root transformation ([3]; RAMP 1/3 KO, Vehicle vs. sCT (3 nmol/kg), Tukey) | Predicted (LS) mean diff., AP cFos after square root transformation ([3]; RAMP 1/3 KO, Vehicle vs. sCT (150 nmol/kg), Tukey) | Predicted (LS) mean diff., AP cFos after square root transformation ([3]; RAMP 1/3 KO, sCT (3 nmol/kg) vs. Cagrilintide (3 nmol/kg), Tukey) | Predicted (LS) mean diff., AP cFos after square root transformation ([3]; RAMP 1/3 KO, sCT (3 nmol/kg) vs. sCT (150 nmol/kg), Tukey) | Predicted (LS) mean diff., AP cFos after square root transformation ([3]; RAMP 1/3 KO, sCT (150 nmol/kg) vs. Cagrilintide (3 nmol/kg), Tukey) | Predicted (LS) mean diff., AP cFos after square root transformation ([3]; WT, Vehicle vs. sCT (3 nmol/kg), Tukey) | Predicted (LS) mean diff., AP cFos after square root transformation ([3]; WT, Vehicle vs. sCT (150 nmol/kg), Tukey) | Predicted (LS) mean diff., AP cFos after square root transformation ([3]; WT, sCT (3 nmol/kg) vs. Cagrilintide (3 nmol/kg), Tukey) | Predicted (LS) mean diff., AP cFos after square root transformation ([3]; WT, sCT (3 nmol/kg) vs. sCT (150 nmol/kg), Tukey) | Predicted (LS) mean diff., AP cFos after square root transformation ([3]; WT, sCT (150 nmol/kg) vs. Cagrilintide (3 nmol/kg), Tukey) | Predicted (LS) mean diff., AP cFos after square root transformation ([3]; sCT (3 nmol/kg), WT vs. RAMP 1/3 KO) | Predicted (LS) mean diff., AP cFos after square root transformation ([3]; sCT (150 nmol/kg), WT vs. RAMP 1/3 KO) | binding to AMYRs (AMYRs and CTR)
1 | CC(C)C[C@H](NC(=O)[C@H](CCCCN)NC(=O)CNC(=O)[C@H](CC(C)C)NC(=O)[C@@H](NC(=O)[C@@H]1CSSC[C@H](N)C(=O)N[C@@H](CO)C(=O)N[C@@H](CC(N)=O)C(=O)N[C@@H](CC(C)C)C(=O)N[C@@H](CO)C(=O)N[C@@H]([C@@H](C)O)C(=O)N1)C(C)C)C(=O)N[C@@H](CO)C(=O)N[C@@H](CCC(N)=O)C(=O)N[C@@H](CCC(=O)O)C(=O)N[C@@H](CC(C)C)C(=O)N[C@@H](Cc1c[nH]cn1)C(=O)N[C@@H](CCCCN)C(=O)N[C@@H](CC(C)C)C(=O)N[C@@H](CCC(N)=O)C(=O)N[C@H](C(=O)N[C@@H](Cc1ccc(O)cc1)C(=O)N1CCC[C@H]1C(=O)N[C@@H](CCCNC(=N)N)C(=O)N[C@H](C(=O)N[C@@H](CC(N)=O)C(=O)N[C@H](C(=O)NCC(=O)N[C@@H](CO)C(=O)NCC(=O)N[C@H](C(=O)N1CCC[C@H]1C(N)=O)[C@@H](C)O)[C@@H](C)O)[C@@H](C)O)[C@@H](C)O [sCT, salmon calcitonin] | 45 to 60 | 15 | no effect | no effect | approx. 2 g | 1.5 ± 0.2 | -8.457 | -9.262 | 4.579 | -0.8046 | 5.384 | -8.131 | -7.632 | 1.906 | 0.4986 | 1.408 | -0.1355 | -1.439 | –
2 | Davalintide | – | – | – | – | – | – | – | – | – | – | – | – | – | – | – | – | – | – | binds irreversibly
